Target: T1, BACE-1 (Homo sapiens, UniProt P56817)
T1 construct: endogenous in cells; host or cells: HEK-293 cells stably transfected with wild type APP695
Experiment: Cellular BACE-1 inhibition assay (in vitro cellular Amyloidβ 1-40 production, HTRF immunoassay)
Format: cell-based
Conditions: inhibition of Amyloidβ 1-40 production; HEK-293 cells stably transfected with wild type APP695; 48 hours incubation; average where tested more than once; read-out: IC50
Procedure: Materials and Methods: HEK-293 cells stably transfected with a DNA construct containing the coding sequence for the wild type APP695 sequence were grown in Dulbecco's Modified Eagle Medium (“DMEM”) supplemented with 10% fetal bovine serum, penicillin/streptomycin and 150 μg/mL G418. Cells were plated in 96-well plates at 35,000 cells/well and allowed to attach for 8-12 hours. Media was changed to DMEM supplemented with 10% fetal bovine serum, penicillin/streptomycin 15 minutes prior to compound addition. Diluted compounds were then added at a final concentration of 0.5% DMSO. After 48 hours, 4 μL of media from each well was added to a corresponding well of a 384 well plate (Perkin Elmer Cat#6008280) containing the HTRF reagents. HTRF reagents were obtained from the CisBio Amyloid β 1-40 peptide assay kit (Cat#62B40PEC) and were prepared as follows anti-peptide β (1-40)-Cryptate and anti-peptide […] were stored in 2 plate aliquots at −80° C. Diluent and Reconstitution buffer were stored at 4° C. Aliquots of the two antibodies were diluted 1:100 with Reconstitution buffer, and this mixture was diluted 1:2 with Diluent. 12 μL of the reagent mixture was added to the required wells of the 384 well assay plate. The assay plate was incubated at 4° C. for 17 hours and then analyzed for fluorescence at 665 and 620 nm. The following compounds were tested in the above assay. Some compounds were tested more than once, and the average is reported below.

T1 sequence (P56817 46-501): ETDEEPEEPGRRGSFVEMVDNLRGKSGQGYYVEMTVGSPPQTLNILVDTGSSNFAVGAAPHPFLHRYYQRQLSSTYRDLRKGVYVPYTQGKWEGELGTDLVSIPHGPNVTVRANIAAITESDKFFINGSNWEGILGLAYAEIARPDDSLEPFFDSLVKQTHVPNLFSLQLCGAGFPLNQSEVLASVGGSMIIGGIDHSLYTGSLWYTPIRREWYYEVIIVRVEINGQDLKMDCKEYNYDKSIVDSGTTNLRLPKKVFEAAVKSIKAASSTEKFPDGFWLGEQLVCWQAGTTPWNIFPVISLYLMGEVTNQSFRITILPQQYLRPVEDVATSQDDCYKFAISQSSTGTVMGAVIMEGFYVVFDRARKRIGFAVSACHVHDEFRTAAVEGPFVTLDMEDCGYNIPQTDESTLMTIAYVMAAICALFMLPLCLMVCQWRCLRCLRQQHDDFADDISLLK

IC50 [nM] | SMILES
33.5 | COC1CCC2Oc3ccc(-c4cncc(Cl)c4)cc3C3(COC(N)=N3)C2C1 (stereo not drawn) [Example 54, 7′-(5-chloropyridin-3-yl)-2′-methoxy-1′,2′,3′,4′,4a′,9a′-hexahydro-5H-spiro[oxazole-4,9′-xanthen]-2-amine]
48.3 | N#Cc1cc(Cl)cc(-c2ccc3c(c2)[C@@]2(COC(N)=N2)[C@H]2C[C@@H](O)CC[C@@H]2O3)c1 [Example 140, 3-((2′S,4R,4a′S,9a′R)-2-amino-2′-hydroxy-1′,2′,3′,4′,4a′,9a′-hexahydro-5H-spiro[oxazole-4,9′-xanthen]-7′-yl)-5-chlorobenzonitrile]
192 | NC1=N[C@@]2(CS1)c1cc(-c3cncnc3)ccc1O[C@H]1CC[C@H](O)C[C@@H]12 [Example 146, (2′S,4R,4a′S,9a′R)-2-amino-7′-(pyrimidin-5-yl)-1′,2′,3′,4′,4a′,9a′-hexahydro-5H-spiro[thiazole-4,9′-xanthen]-2′-ol]
100 | NC1=N[C@@]2(CO1)c1cc(-c3cncnc3)ccc1O[C@H]1CC[C@H](OCC3CC3)C[C@@H]12 [Example 150, (2′S,4R,4a′S,9a′R)-2′-(cyclopropylmethoxy)-7′-(pyrimidin-5-yl)-1′,2′,3′,4′,4a′,9a′-hexahydro-5H-spiro[oxazole-4,9′-xanthen]-2-amine]
71.4 | CC(C)O[C@H]1CCC2Oc3ccc(-c4cccnc4F)cc3C3(COC(N)=N3)[C@H]2C1 (stereo partly drawn) [Example 155, (2′S,4a′S,9aR)-7′-(2-fluoropyridin-3-yl)-2′-isopropoxy-1′,2′,3′,4′,4a′,9a′-hexahydro-5H-spiro[oxazole-4,9′-xanthen]-2-amine]
76.1 | CCO[C@H]1CC[C@@H]2Oc3ccc(-c4cc(F)cc(C#N)c4)cc3C3(COC(N)=N3)[C@H]2C1 (stereo partly drawn) [Example 159, 3-((2′S,4a′S,9a′R)-2-amino-2′-ethoxy-1′,2′,3′,4′,4a′,9a′-hexahydro-5H-spiro[oxazole-4,9′-xanthen]-7′-yl)-5-fluorobenzonitrile]
630 | NC1=NC2(CO1)c1cc(-c3cccnc3F)ccc1OC1CCC3(CCO3)C[C@@H]12 (stereo partly drawn) [Example 199]
5290 | C[C@@]12CCO[C@@H]1[C@@]1(COC(N)=N1)c1cc(-c3cc(F)cc(Cl)c3)ccc1O2 [Example 266, (3aR,4′S,9aR)-7-(3-chloro-5-fluorophenyl)-3a-methyl-2,3,3a,9a-tetrahydro-5′H-spiro[furo[3,2-b]chromene-9,4′-oxazol]-2′-amine]

SMILES | IC50 [nM]
N#Cc1cc(Cl)cc(-c2ccc3c(c2)[C@@]2(COC(N)=N2)[C@H]2C[C@@H](OC4CCC4)CC[C@@H]2O3)c1 [Example 156, 3-((2′S,4R,4a′S,9a′R)-2-amino-2′-cyclobutoxy-1′,2′,3′,4′,4a′,9a′-hexahydro-5H-spiro[oxazole-4,9′-xanthen]-7′-yl)-5-chlorobenzonitrile] | 92.8

Source: US20120157448A1, “COMPOUNDS FOR TREATING NEURODEGENERATIVE DISEASES” (priority 2010, published 2012)
